We go through 68 compounds from ChEMBL document CHEMBL3882725, “Indazole derivatives as JNK inhibitors and compositions and methods related thereto” (2002).

The target in this experiment is Mitogen-activated protein kinase 9 (Homo sapiens, UniProt P45984). As to the kind of experiment: Inhibition of His6-tagged JNK2 (unknown origin) assessed as reduction in c-Jun phosphorylation using GST-c-Jun (1 to 79 residues) and [gamma32P]ATP incubated for 1 hr by scintillation counting assay.
Chain of Mitogen-activated protein kinase 9 (P45984 whole entry, the tested form may be a part): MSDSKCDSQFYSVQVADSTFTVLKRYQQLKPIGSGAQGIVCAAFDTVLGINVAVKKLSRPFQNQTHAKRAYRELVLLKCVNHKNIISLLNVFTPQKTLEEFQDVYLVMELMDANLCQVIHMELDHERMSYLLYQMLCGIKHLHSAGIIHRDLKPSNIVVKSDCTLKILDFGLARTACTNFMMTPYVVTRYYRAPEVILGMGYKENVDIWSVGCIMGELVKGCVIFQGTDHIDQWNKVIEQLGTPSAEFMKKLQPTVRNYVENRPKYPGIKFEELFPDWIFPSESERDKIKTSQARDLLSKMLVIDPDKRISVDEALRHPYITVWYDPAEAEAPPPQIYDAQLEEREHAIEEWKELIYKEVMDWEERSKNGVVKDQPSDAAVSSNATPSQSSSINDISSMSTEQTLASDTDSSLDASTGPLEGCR

In the case of `Clc1cccc(-c2n[nH]c3ccc(-c4ncn[nH]4)cc23)c1`, the IC50 was 1 to 10 µM.

With `COc1ccc(CC(=O)Nc2cccc(-c3n[nH]c4ccc(C(N)=O)cc34)c2)cc1`, the IC50 fell in the range of 0.5 to 10 µM.

For the compound `COc1ccc(-c2n[nH]c3ccc(-c4ncn[nH]4)cc23)cc1`, the IC50 was 1 to 10 µM.

Turning to `Fc1ccc(-c2n[nH]c3ccc(-c4nc(-c5ccncc5)n[nH]4)cc23)cc1`, the IC50 was in the range of 1 to 10 µM.

In the case of `Fc1ccc(-c2n[nH]c3ccc(/C=C/c4ccccn4)cc23)cc1`, the IC50 is no more than 10 µM.

For the compound `O=C(N[C@@H]1CCc2ccccc21)c1cccc(-c2n[nH]c3ccc(-c4ncn[nH]4)cc23)c1`, the IC50 lay within 0.5 to 10 µM.

As to `O=C(NCc1cccnc1)c1ccc2[nH]nc(-c3ccc(F)cc3)c2c1`, the IC50 was 1 to 10 µM.

`O=C(Nc1ccccn1)c1ccc2[nH]nc(-c3ccc(F)cc3)c2c1`: the IC50 is no more than 10 µM.

On to `c1cc2[nH]nc(-c3ccc4c(c3)OCO4)c2cc1-c1nnn[nH]1`, for which the IC50 fell in the range of 0.5 to 10 µM.

With `O=C(N[C@@H]1c2ccccc2C[C@@H]1O)c1cccc(-c2n[nH]c3ccc(-c4ncn[nH]4)cc23)c1`, the IC50 was in the range of 1 to 10 µM.

On to `O=C(Nc1ccc(F)cc1)Nc1ccc2[nH]nc(-c3ccc(F)cc3)c2c1`, for which the IC50 was no more than 10 µM.

Regarding `c1cc(OCCN2CCCCC2)cc(-c2n[nH]c3ccc(-c4nc[nH]n4)cc23)c1` [CC-401], the IC50 lay in the range of 1 to 10 µM.

In the case of `CN(C)Cc1n[nH]c(-c2ccc3[nH]nc(-c4cccc(C(=O)Nc5ccccc5)c4)c3c2)n1`, the IC50 is 0.5 to 10 µM.

Turning to `COc1ccc(-c2n[nH]c3ccc(-c4nnn[nH]4)cc23)cc1OC`, the IC50 fell in the range of 0.5 to 10 µM.

As for `NC(=O)c1ccc(C(=O)Nc2ccc3[nH]nc(-c4ccc(F)cc4)c3c2)cc1`, the concentration for half-maximal inhibition (IC50) was 1 to 10 µM.

On to `CN(C)CCOc1ccc(-c2n[nH]c3ccc(-c4ncn[nH]4)cc23)cc1`, for which the IC50 lay within 1 to 10 µM.

`Nc1ccc2[nH]nc(-c3ccc(F)cc3)c2c1`: the half-maximal inhibitory concentration (IC50) was no more than 10 µM.

Regarding `CN(C)Cc1nc(-c2ccc3[nH]nc(-c4cccc(NC(=O)CC(C)(C)C)c4)c3c2)n[nH]1`, the IC50 fell in the range of 0.5 to 10 µM.

Consider `COCCNC(=O)c1ccc2[nH]nc(-c3cc4ccccc4o3)c2c1`, for which the IC50 lay in the range of 1 to 10 µM.

For the compound `c1csc(-c2n[nH]c3ccc(-c4nnn[nH]4)cc23)c1`, the IC50 lay within 0.5 to 10 µM.

On to `O=C(NCc1ccccc1)c1cccc(-c2n[nH]c3ccc(-c4ncn[nH]4)cc23)c1`, for which the IC50 was 0.5 to 10 µM.

On to `O=C(Nc1ccc2[nH]nc(-c3ccc(F)cc3)c2c1)c1ccccc1`, for which the IC50 was in the range of 1 to 10 µM.

For `NC(=O)c1ccc2[nH]nc(-c3ccc4c(c3)OCCO4)c2c1`, the IC50 lay in the range of 1 to 10 µM.

As to `Fc1ccc(-c2n[nH]c3ccc(CCc4ccccn4)cc23)cc1`, the IC50 was no more than 10 µM.

On to `O=C(Nc1ccncc1)c1ccc2[nH]nc(-c3ccc(F)cc3)c2c1`, for which the half-inhibitory concentration (IC50) is 1 to 10 µM.

For the compound `COc1ccc(-c2n[nH]c3ccc([N+](=O)[O-])cc23)cc1OC`, the half-inhibitory concentration (IC50) is no more than 10 µM.

For `NC(=O)c1ccc2[nH]nc(-c3cccc(NC(=O)Cc4ccccn4)c3)c2c1`, the IC50 was in the range of 1 to 10 µM.

With `O=C(Nc1cccc(-c2n[nH]c3ccc(-c4nc[nH]n4)cc23)c1)c1ccccn1`, the IC50 is 0.5 to 10 µM.

For `COCCOc1cccc(-c2n[nH]c3ccc(-c4nc[nH]n4)cc23)c1`, the IC50 fell in the range of 1 to 10 µM.

`CN(C)CCc1nc(-c2ccc3[nH]nc(-c4ccc(F)cc4)c3c2)n[nH]1`: the IC50 was in the range of 1 to 10 µM.

`NC(=O)c1ccc2[nH]nc(-c3cccc(NC(=O)C4CCOC4)c3)c2c1` (stereo not drawn): the IC50 lay in the range of 0.5 to 10 µM.

Turning to `Nc1ccc2[nH]nc(-c3ccccc3)c2c1`, the IC50 is no more than 10 µM.

Regarding `O=[N+]([O-])c1ccc2[nH]nc(-c3ccoc3)c2c1`, the IC50 is no more than 10 µM.

As to `c1ccc2sc(-c3n[nH]c4ccc(-c5nn[nH]n5)cc34)cc2c1`, the IC50 lay in the range of 0.5 to 10 µM.

As for `O=C(Nc1cccc(-c2n[nH]c3ccc(-c4nc[nH]n4)cc23)c1)c1cc2ccccc2s1`, the IC50 was in the range of 1 to 10 µM.

`OC(Cc1ccccc1)c1ccc2[nH]nc(-c3ccc(F)cc3)c2c1` (stereo not drawn): the IC50 lay in the range of 1 to 10 µM.

Take `c1ccc(COc2ccc3[nH]nc(-c4ccccc4)c3c2)cc1`: the IC50 was no more than 10 µM.

Take `NC(=O)c1ccc2[nH]nc(-c3cc4ccccc4o3)c2c1`: the IC50 fell in the range of 1 to 10 µM.

With `O=C(NC1CCN(Cc2ccccc2)CC1)c1cccc(-c2n[nH]c3ccc(-c4nc[nH]n4)cc23)c1`, the half-inhibitory concentration (IC50) fell in the range of 0.5 to 10 µM.

In the case of `CC(C)c1cccc(-c2n[nH]c3ccc(C(N)=O)cc23)c1`, the IC50 is no more than 10 µM.

As to `O=C(NCc1ccncc1)c1ccc2[nH]nc(-c3ccc(F)cc3)c2c1`, the IC50 lay within 1 to 10 µM.

For the compound `CCCC(=O)Nc1cccc(-c2n[nH]c3ccc(-c4nc[nH]n4)cc23)c1`, the IC50 fell in the range of 0.5 to 10 µM.

As for `COc1ccc(-c2n[nH]c3ccc(N)cc23)cc1`, the IC50 was no more than 10 µM.

On to `c1ccc2oc(-c3n[nH]c4ccc(-c5nc[nH]n5)cc34)cc2c1`, for which the IC50 fell in the range of 0.5 to 10 µM.

Consider `CN(C)CCCOc1cccc(-c2n[nH]c3ccc(-c4ncn[nH]4)cc23)c1`, for which the IC50 was 1 to 10 µM.

For the compound `Cc1ccc2[nH]nc(-c3ccccc3)c2c1`, the IC50 was no more than 10 µM.

On to `CC(C)(C)CC(=O)Nc1cccc(-c2n[nH]c3ccc(-c4nc[nH]n4)cc23)c1`, for which the IC50 fell in the range of 0.5 to 10 µM.

On to `Cn1cncc1CCNC(=O)c1ccc2[nH]nc(-c3ccc(F)cc3)c2c1`, for which the IC50 lay within 1 to 10 µM.

For the compound `CN1CCN(C(=O)c2cccc(-c3n[nH]c4ccc(-c5ncn[nH]5)cc34)c2)CC1`, the IC50 was no more than 10 µM.

As to `CCN(CC)Cc1nc(-c2ccc3[nH]nc(-c4ccc(F)cc4)c3c2)n[nH]1`, the IC50 fell in the range of 1 to 10 µM.

Regarding `c1nc(-c2ccc3[nH]nc(-c4ccsc4)c3c2)n[nH]1`, the IC50 was 1 to 10 µM.

`CC(O)c1nnc(-c2ccc3[nH]nc(-c4ccc(F)cc4)c3c2)[nH]1` (stereo not drawn): the IC50 was 0.5 to 10 µM.

As for `O=C(NCC1CCCC[C@H]1O)c1ccc2[nH]nc(-c3ccc(F)cc3)c2c1` (stereo partly drawn), the IC50 lay within 1 to 10 µM.

With `CC(C)NC(=O)c1cccc(-c2n[nH]c3ccc(-c4nc[nH]n4)cc23)c1`, the IC50 lay within 0.5 to 10 µM.

For the compound `O=C(c1ccc2[nH]nc(-c3ccc(F)cc3)c2c1)N1CCCC1`, the IC50 is no more than 10 µM.

`CC(=O)Nc1cccc(-c2n[nH]c3ccc(-c4ncn[nH]4)cc23)c1`: the IC50 fell in the range of 1 to 10 µM.

`NC(=O)c1ccc2[nH]nc(-c3ccc4ccccc4c3)c2c1`: the IC50 lay in the range of 1 to 10 µM.

`NC(=O)c1ccc2[nH]nc(-c3cc4ccccc4s3)c2c1`: the IC50 was in the range of 1 to 10 µM.

In the case of `O=C(Nc1ccc2[nH]nc(-c3ccc(F)cc3)c2c1)C1CC1`, the IC50 was no more than 10 µM.

Regarding `O=C(O)c1ccc(C(=O)Nc2ccc3[nH]nc(-c4ccncc4)c3c2)cc1`, the IC50 was in the range of 1 to 10 µM.

For `CC(C)NC(=O)c1ccc2[nH]nc(-c3cc4ccccc4o3)c2c1`, the IC50 lay within 1 to 10 µM.

For the compound `CCCCC(=O)Nc1cccc(-c2n[nH]c3ccc(-c4nc[nH]n4)cc23)c1`, the IC50 was 0.5 to 10 µM.

Take `O=C(Nc1cccc(-c2n[nH]c3ccc(-c4nc[nH]n4)cc23)c1)[C@H](O)c1ccccc1`: the IC50 was 0.5 to 10 µM.

As for `c1n[nH]c(-c2ccc3[nH]nc(-c4ccoc4)c3c2)n1`, the IC50 fell in the range of 1 to 10 µM.

`CC(C)c1n[nH]c(-c2ccc3[nH]nc(-c4ccc(F)cc4)c3c2)n1`: the half-inhibitory concentration (IC50) lay in the range of 0.5 to 10 µM.

Take `O=[N+]([O-])c1ccc2[nH]nc(-c3cccc(C(F)(F)F)c3)c2c1`: the IC50 was no more than 10 µM.

For `c1ccc2cc(-c3n[nH]c4ccc(-c5nnn[nH]5)cc34)ccc2c1`, the IC50 was in the range of 0.5 to 10 µM.

On to `CS(=O)(=O)c1ccc(-c2n[nH]c3ccc(-c4ncn[nH]4)cc23)cc1`, for which the IC50 is 1 to 10 µM.
